# Experimental data from patent publication US20050232975A1, “Composition and method to improve quality and yield of meat products” (priority 2002, published 2005).
# Key:
# Format in all cases: in vivo
# [1] = Vitamin C in the blood after oral administration to cattle
# Method: Applicants have learned that oral administration of Vitamin C to cattle results in measurable Vitamin C in the blood in about 45 minutes. These blood levels reach a maximum level between about 45 minutes and about 2 hours. In certain embodiments, Applicants orally administer their composition to a meat-producing animal about 45 minutes prior to harvest. In certain embodiments, Applicants orally administer their composition to a meat-producing animal about 2 hours prior to harvest. In certain embodiments, Applicants orally administer their composition to a meat-producing animal about 6 hours prior to harvest. In certain embodiments, Applicants orally administer their composition to a meat-producing animal about 18 hours prior to harvest. In certain embodiments, Applicants orally administer their composition to a meat-producing animal about 24 hours prior to harvest. In certain embodiments, Applicants orally administer their composition to a meat-producing animal about 48 hours prior to harvest
# beef cattle [2] = assay: Example I: water retention (drip loss, moisture, free/bound/immobile water) of meat cuts after one-time oral administration to beef cattle pre-harvest; parameters: Total moisture: unit not given here; conditions: about 6 hours prior to harvest
# Method: To study the dose/response efficacy of a one-time administration of Vitamin C to beef cattle on the water retention of various cuts of meat prepared post-harvest, Applicants' studied four (4) treatments. Those treatments were is administered orally to 4 head of cattle about 6 hours prior to harvest. In a first control treatment, no Vitamin C was administered. In a second treatment, the animal's feed included about 50 grams of a phosphorylated Vitamin C sold in commerce by Roche Vitamins, Inc. under the name Rovimix® Stay-C®. In a third treatment, the animal's feed included about 100 grams of Rovimix® Stay-C®. In a fourth treatment, the animal's feed included about 150 grams of Rovimix® Stay-C®. Table I summarizes the results of this Example I. In treatments 2, 3, and 4, the phosphorylated Vitamin C was disposed in about 200 grams of grapefruit pulp. That Vitamin C/grapefruit pulp was orally administered to each of the cattle as a one-time drench. In treatment 1, the control cattle were administered the normal diet. By “LD,” Applicants mean meat products comprising the Longissimus dorsi muscle. These cuts are sold in commerce as, for example, strip loins. By “SM,” Applicants mean meat products comprising the Semimembranosus/adductor muscle. These cuts are sold in commerce as, for example, top round or inside round. By “TRI,” Applicants mean products comprising the triceps brachii muscle sometimes called the shoulder clod. These cuts are sold in commerce as, for example, beef roasts.
# beef cattle [3] = assay: Example II: pH of meat cuts post-harvest after one-time oral administration to beef cattle pre-harvest; conditions: about 6 hours prior to harvest
# Method: To study the dose/response efficacy of a one-time administration of Vitamin C to beef cattle on the pH of various cuts of meat prepared post-harvest, Applicants' studied four (4) treatments. Those treatments were is administered orally to 4 head of cattle about 6 hours prior to harvest. In a first control treatment, no Vitamin C was administered. In a second treatment, the animal's feed included about 50 grams of a phosphorylated Vitamin C sold in commerce by Roche Vitamins, Inc. under the name Rovimix® Stay-C®. In a third treatment, the animal's feed included about 100 grams of Rovimix® Stay-C®. In a fourth treatment, the animal's feed included about 150 grams of Rovimix® Stay-C®.
# In treatments 2, 3, and 4, the phosphorylated Vitamin C was disposed in about 200 grams of grapefruit pulp. That Vitamin C/grapefruit pulp was orally administered to each of the cattle as a one-time bolus. In treatment 1, the control cattle were administered their normal diet.
# [4] = 0 min after harvest, 50 grams oral
# [5] = 0 min after harvest, 100 grams oral
# [6] = 0 min after harvest, 150 grams oral
# [7] = 30 min after harvest, 50 grams oral
# [8] = 30 min after harvest, 100 grams oral
# [9] = 30 min after harvest, 150 grams oral
# [10] = 60 min after harvest, 50 grams oral
# [11] = 60 min after harvest, 100 grams oral
# [12] = 60 min after harvest, 150 grams oral
# [13] = 90 min after harvest, 50 grams oral
# [14] = 90 min after harvest, 100 grams oral
# [15] = 90 min after harvest, 150 grams oral
# [16] = 120 min after harvest, 50 grams oral
# [17] = 120 min after harvest, 100 grams oral
# [18] = 120 min after harvest, 150 grams oral
# [19] = 150 min after harvest, 50 grams oral
# [20] = 150 min after harvest, 100 grams oral
# [21] = 150 min after harvest, 150 grams oral
# [22] = 180 min after harvest, 50 grams oral
# [23] = 180 min after harvest, 100 grams oral
# [24] = 180 min after harvest, 150 grams oral
compound,measurement,setting,value
"O=C1O[C@H]([C@@H](O)CO)C(O)=C1O [Vitamin C, L-ascorbic acid]",time to measurable Vitamin C in the blood,"[1]; bovine, in vivo, po",about 45 minutes
same,time at which blood levels reach a maximum level,[1]; oral administration to cattle,about 45 minutes and about 2 hours
same,Percent moisture,"beef cattle [2]; LD cut, 50 grams oral",0.7021
same,Total moisture,"beef cattle [2]; LD cut, 50 grams oral",384.78
same,Total moisture,"beef cattle [2]; LD cut, 100 grams oral",366.33
same,Bound water,"beef cattle [2]; LD cut, 150 grams oral",78.6805%
same,Free water,"beef cattle [2]; LD cut, 150 grams oral",21.3195%
same,Immobile water,"beef cattle [2]; LD cut, 150 grams oral",57.3609%
same,Total moisture,"beef cattle [2]; LD cut, 150 grams oral",354.2
same,Bound water,"beef cattle [2]; SM cut, 50 grams oral",80.5196%
same,Free water,"beef cattle [2]; SM cut, 50 grams oral",19.4804%
same,Immobile water,"beef cattle [2]; SM cut, 50 grams oral",61.0392%
same,Percent moisture,"beef cattle [2]; SM cut, 50 grams oral",0.6522
same,Total moisture,"beef cattle [2]; SM cut, 50 grams oral",353.36
same,Bound water,"beef cattle [2]; SM cut, 100 grams oral",83.959%
same,Free water,"beef cattle [2]; SM cut, 100 grams oral",16.041%
same,Immobile water,"beef cattle [2]; SM cut, 100 grams oral",67.918%
same,Total moisture,"beef cattle [2]; SM cut, 100 grams oral",365.7
same,Bound water,"beef cattle [2]; SM cut, 150 grams oral",75.6853%
same,Free water,"beef cattle [2]; SM cut, 150 grams oral",24.3147%
same,Immobile water,"beef cattle [2]; SM cut, 150 grams oral",51.3706%
same,Total moisture,"beef cattle [2]; SM cut, 150 grams oral",371.99
same,Bound water,"beef cattle [2]; TRI cut, 50 grams oral",77.269%
same,Free water,"beef cattle [2]; TRI cut, 50 grams oral",22.731%
same,Immobile water,"beef cattle [2]; TRI cut, 50 grams oral",54.5381%
same,Percent moisture,"beef cattle [2]; TRI cut, 50 grams oral",0.7019
same,Total moisture,"beef cattle [2]; TRI cut, 50 grams oral",376.45
same,Total moisture,"beef cattle [2]; TRI cut, 100 grams oral",361.8
same,Bound water,"beef cattle [2]; TRI cut, 150 grams oral",81.0096%
same,Free water,"beef cattle [2]; TRI cut, 150 grams oral",18.9904%
same,Immobile water,"beef cattle [2]; TRI cut, 150 grams oral",62.0192%
same,Total moisture,"beef cattle [2]; TRI cut, 150 grams oral",399.11
same,Measured pH Of Beef Roast,beef cattle [3]; [4],6.82
same,Measured pH Of Strip Loin,beef cattle [3]; [4],6.78
same,Measured pH Of Top Round Cuts,beef cattle [3]; [4],6.70
same,Measured pH Of Beef Roast,beef cattle [3]; [5],6.73
same,Measured pH Of Strip Loin,beef cattle [3]; [5],6.78
same,Measured pH Of Top Round Cuts,beef cattle [3]; [5],6.70
same,Measured pH Of Beef Roast,beef cattle [3]; [6],6.77
same,Measured pH Of Strip Loin,beef cattle [3]; [6],6.76
same,Measured pH Of Top Round Cuts,beef cattle [3]; [6],6.64
same,Measured pH Of Beef Roast,beef cattle [3]; [7],6.41
same,Measured pH Of Strip Loin,beef cattle [3]; [7],6.45
same,Measured pH Of Top Round Cuts,beef cattle [3]; [7],6.46
same,Measured pH Of Beef Roast,beef cattle [3]; [8],6.43
same,Measured pH Of Strip Loin,beef cattle [3]; [8],6.45
same,Measured pH Of Top Round Cuts,beef cattle [3]; [8],6.44
same,Measured pH Of Beef Roast,beef cattle [3]; [9],6.44
same,Measured pH Of Strip Loin,beef cattle [3]; [9],6.36
same,Measured pH Of Top Round Cuts,beef cattle [3]; [9],6.47
same,Measured pH Of Beef Roast,beef cattle [3]; [10],6.19
same,Measured pH Of Strip Loin,beef cattle [3]; [10],6.22
same,Measured pH Of Top Round Cuts,beef cattle [3]; [10],6.12
same,Measured pH Of Beef Roast,beef cattle [3]; [11],6.19
same,Measured pH Of Strip Loin,beef cattle [3]; [11],6.25
same,Measured pH Of Top Round Cuts,beef cattle [3]; [11],6.36
same,Measured pH Of Beef Roast,beef cattle [3]; [12],6.26
same,Measured pH Of Strip Loin,beef cattle [3]; [12],6.22
same,Measured pH Of Top Round Cuts,beef cattle [3]; [12],6.20
same,Measured pH Of Beef Roast,beef cattle [3]; [13],6.11
same,Measured pH Of Strip Loin,beef cattle [3]; [13],6.00
same,Measured pH Of Top Round Cuts,beef cattle [3]; [13],5.84
same,Measured pH Of Beef Roast,beef cattle [3]; [14],6.05
same,Measured pH Of Strip Loin,beef cattle [3]; [14],6.02
same,Measured pH Of Top Round Cuts,beef cattle [3]; [14],6.05
same,Measured pH Of Beef Roast,beef cattle [3]; [15],6.06
same,Measured pH Of Strip Loin,beef cattle [3]; [15],6.07
same,Measured pH Of Top Round Cuts,beef cattle [3]; [15],5.91
same,Measured pH Of Beef Roast,beef cattle [3]; [16],6.10
same,Measured pH Of Strip Loin,beef cattle [3]; [16],5.83
same,Measured pH Of Top Round Cuts,beef cattle [3]; [16],5.75
same,Measured pH Of Beef Roast,beef cattle [3]; [17],5.96
same,Measured pH Of Strip Loin,beef cattle [3]; [17],5.78
same,Measured pH Of Top Round Cuts,beef cattle [3]; [17],5.81
same,Measured pH Of Beef Roast,beef cattle [3]; [18],5.91
same,Measured pH Of Strip Loin,beef cattle [3]; [18],5.88
same,Measured pH Of Top Round Cuts,beef cattle [3]; [18],5.78
same,Measured pH Of Beef Roast,beef cattle [3]; [19],6.01
same,Measured pH Of Strip Loin,beef cattle [3]; [19],5.75
same,Measured pH Of Top Round Cuts,beef cattle [3]; [19],5.60
same,Measured pH Of Beef Roast,beef cattle [3]; [20],5.89
same,Measured pH Of Strip Loin,beef cattle [3]; [20],5.76
same,Measured pH Of Top Round Cuts,beef cattle [3]; [20],5.59
same,Measured pH Of Beef Roast,beef cattle [3]; [21],5.80
same,Measured pH Of Strip Loin,beef cattle [3]; [21],5.66
same,Measured pH Of Top Round Cuts,beef cattle [3]; [21],5.67
same,Measured pH Of Beef Roast,beef cattle [3]; [22],5.87
same,Measured pH Of Strip Loin,beef cattle [3]; [22],5.67
same,Measured pH Of Top Round Cuts,beef cattle [3]; [22],5.53
same,Measured pH Of Beef Roast,beef cattle [3]; [23],5.83
same,Measured pH Of Strip Loin,beef cattle [3]; [23],5.59
same,Measured pH Of Top Round Cuts,beef cattle [3]; [23],5.55
same,Measured pH Of Beef Roast,beef cattle [3]; [24],5.79
same,Measured pH Of Strip Loin,beef cattle [3]; [24],5.50
same,Measured pH Of Top Round Cuts,beef cattle [3]; [24],5.57
